Read-outs that look alike come from different tables or passages of the source.
Key:
[1] = log P determination by HPLC (EEC Directive 79/831 Annex V.A8); assay type: physicochemical
Protocol: The measurements were carried out using an Agilent 1100 LC system with a 50*4.6 Zorbax Eclipse C18 1.8 μm column (oven temperature 55° C., flow rate 2.0 ml/min).
The following mobile phases were used:
Mobile phase A: acetonitrile+1000 μl of formic acid/l
Mobile phase B: Millipore water+900 μl of formic acid/l

[2] = tested on: larvae of the mustard beetle (Phaedon cochleariae); assay: Phaedon test (PHAECO spray treatment); settings: Phaedon cochleariae, in Brassica rapa, foliar, read-out: effect in % (beetle larvae killed)
[3] = tested on: caterpillars of the armyworm (Spodoptera frugiperda); assay: Spodoptera frugiperda test (SPODFR spray treatment); assay type: in vivo; settings: Spodoptera frugiperda, foliar, read-out: effect in % (caterpillars killed)
Text: Solvent: 78.0 parts by weight of acetone

[4] = reversed-phase HPLC, Zorbax Eclipse C18 column, determined by HPLC according to EEC Directive 79/831 Annex V.A8, read-out: log P
[5] = application rate 100 g/ha, maize leaf discs
[6] = reversed-phase HPLC, Zorbax Eclipse C18 column, by HPLC according to EEC Directive 79/831 Annex V.A8, read-out: log P

Structure (SMILES) | chromatographic logP ([1]; log P) | pest or weed control at 100 g/ha [2] | pest or weed control at 100 g/ha ([3]; in Zea mays) | chromatographic logP [1, 4] | pest or weed control at 100 g/ha [3, 5] | chromatographic logP [1, 6]
CNC(=O)c1cc(Br)cc(C)c1NC(=O)c1cc(Cn2nnc(C(F)(F)F)n2)nn1-c1ncccc1Cl [Example 28] | 3.05 | ≥ 80% | ≥ 80% | – | – | –
CSC[C@H](C)NC(=O)c1cc(Cl)cc(C)c1NC(=O)c1cc(Cn2nnc(C(F)(F)C(F)(F)F)n2)nn1-c1ncccc1Cl [Example 212] | 4.09 | ≥ 80% | ≥ 80% | – | – | –
CNC(=O)c1cc(C#N)cc(C)c1NC(=O)c1cc(Cn2nnnc2C(F)(F)F)nn1-c1ccccc1C(F)(F)F [Example 490] | – | ≥ 80% | – | 2.91 | ≥ 80% | –
Cc1cc(C#N)cc(C(=O)NCC2CCCCC2)c1NC(=O)c1cc(Cn2nnnc2C(F)(F)F)nn1-c1ncccc1Cl [Example 195] | 3.26 | ≥ 80% | ≥ 80% | – | – | –
Cc1cc(I)cc(C(=O)NCC2CC2)c1NC(=O)c1cc(Cn2nnc(C(F)(C(F)(F)F)C(F)(F)F)n2)nn1-c1ncccc1Cl [Example 383] | – | ≥ 80% | – | – | ≥ 80% | 4.51
CNC(=O)c1cc(C#N)cc(C)c1NC(=O)c1cc(Cn2nnc(C(C)(C)C)n2)nn1-c1ncccc1Cl [Example 101] | 2.62 | ≥ 80% | ≥ 80% | – | – | –
Cc1cc(Cl)cc(C(=O)NC(C)(C)C)c1NC(=O)c1cc(C(C)n2nnc(C(F)(F)F)n2)nn1-c1ncccc1Cl (stereo not drawn) [Example 541] | 4.1 | ≥ 80% | ≥ 80% | – | – | –
Cc1cc(C#N)cc(C(=O)NCC(F)F)c1NC(=O)c1cc(Cn2nnnc2C(F)(F)F)nn1-c1ncccc1Cl [Example 207] | 2.57 | ≥ 80% | ≥ 80% | – | – | –
CNC(=O)c1cc(Cl)cc(C)c1NC(=O)c1cc(Cn2nnnc2C(F)(F)F)nn1-c1cc(Cl)ccc1Cl [Example 473] | – | ≥ 80% | – | 3.52 | ≥ 80% | –
Cc1cc(I)cc(C(N)=O)c1NC(=O)c1cc(Cn2nnc(C(F)(F)F)n2)nn1-c1ncccc1C(F)(F)F [Example 250] | – | ≥ 80% | – | – | ≥ 80% | 3.16
Cc1cc(C#N)cc(C(=O)NC(C)C)c1NC(=O)c1cc(Cn2nnc(C(F)(C(F)(F)F)C(F)(F)F)n2)nn1-c1ncccc1Cl [Example 370] | – | ≥ 80% | – | – | ≥ 80% | 3.79
Cc1cc(Cl)cc(C(=O)NC2CCC2)c1NC(=O)c1cc(Cn2nnc(C(F)(F)F)n2)nn1-c1ncccc1Cl [Example 49] | 3.6 | ≥ 80% | ≥ 80% | – | – | –
COCCNC(=O)c1cc(C#N)cc(C)c1NC(=O)c1cc(Cn2nnc(C(F)(C(F)(F)F)C(F)(F)F)n2)nn1-c1ncccc1Cl [Example 395] | – | ≥ 80% | – | – | ≥ 80% | 3.48
Cc1cc(C#N)cc(C(=O)NCC#N)c1NC(=O)c1cc(Cn2nnnc2C(F)(F)F)nn1-c1ncccc1Cl [Example 208] | 2.31 | ≥ 80% | ≥ 80% | – | – | –
Cc1cc(Cl)cc(C(N)=O)c1NC(=O)c1cc(Cn2nnc(C(F)(F)C(F)(F)F)n2)nn1-c1ncccc1Cl [Example 130] | 3.15 | ≥ 80% | ≥ 80% | – | – | –
Cc1cc(C#N)cc(C(=O)NC(C)C)c1NC(=O)c1cc(Cn2nnc(C(F)(F)C(F)(F)F)n2)nn1-c1ncccc1Cl [Example 135] | 3.55 | ≥ 80% | ≥ 80% | – | – | –
CNC(=O)c1cc(Cl)cc(Cl)c1NC(=O)c1cc(Cn2nnc(C(F)F)n2)nn1-c1ncccc1Cl [Example 282] | 2.48 | ≥ 80% | ≥ 80% | – | – | –
Cc1cc(C#N)cc(C(=O)NC(C)(C)C)c1NC(=O)c1cc(Cn2nnc(C(F)(F)F)n2)nn1-c1ccc(Cl)cc1 [Example 527] | – | ≥ 80% | – | 4.16 | ≥ 80% | –
Cc1cc(C#N)cc(C(=O)NC(C)C)c1NC(=O)c1cc(Cn2nnnc2C(F)(F)F)nn1-c1ncccc1Br [Example 482] | – | ≥ 80% | – | 2.74 | ≥ 80% | –
CNC(=O)c1cc(C#N)cc(C)c1NC(=O)c1cc(Cn2nnc(C(F)(F)F)n2)nn1-c1ncccc1Cl [Example 12] | – | ≥ 80% | ≥ 80% | – | – | 2.66

Structure (SMILES) | chromatographic logP ([1]; log P) | pest or weed control at 100 g/ha [2] | pest or weed control at 100 g/ha ([3]; in Zea mays) | chromatographic logP [1, 4] | pest or weed control at 100 g/ha [3, 5] | chromatographic logP [1, 6]
CCNC(=O)c1cc(C#N)cc(C)c1NC(=O)c1cc(Cn2nnc(C(F)(C(F)(F)F)C(F)(F)F)n2)nn1-c1ncccc1Cl [Example 369] | 3.57 | ≥ 80% | ≥ 80% | – | – | –
Cc1cc(C#N)cc(C(=O)NC(C)(C)C)c1NC(=O)c1cc(Cn2nnc(C(F)F)n2)nn1-c1ncccc1Cl [Example 267] | 2.88 | ≥ 80% | ≥ 80% | – | – | –
Cc1cc(Cl)cc(C(=O)NCC(C)C)c1NC(=O)c1cc(Cn2nnc(C(F)(F)F)n2)nn1-c1ncccc1Cl [Example 37] | 3.78 | ≥ 80% | ≥ 80% | – | – | –
CCNC(=O)c1cc(I)cc(C)c1NC(=O)c1cc(Cn2nnnc2C(F)(F)F)nn1-c1ncccc1C(F)(F)F [Example 457] | – | ≥ 80% | – | 3.3 | ≥ 80% | –
CCNC(=O)c1cc(I)cc(C)c1NC(=O)c1cc(Cn2nnc(C(F)(F)F)n2)nn1-c1ncccc1Br [Example 408] | – | ≥ 80% | – | 3.51 | ≥ 80% | –
Cc1cc(Cl)cc(C(=O)NC(C)(C)C)c1NC(=O)c1cc(Cn2nnc(C(F)(F)F)n2)nn1-c1ccccc1 [Example 403] | – | ≥ 80% | – | 4.14 | ≥ 80% | –
Cc1cc(C#N)cc(C(=O)NC2CCC2)c1NC(=O)c1cc(Cn2nnc(C(F)(F)C(F)(F)F)n2)nn1-c1ncccc1Cl [Example 139] | 3.61 | ≥ 80% | ≥ 80% | – | – | –
N#CCNC(=O)c1cc(Cl)cc(Cl)c1NC(=O)c1cc(Cn2nnc(C(F)(C(F)(F)F)C(F)(F)F)n2)nn1-c1ncccc1Cl [Example 393] | 3.59 | ≥ 80% | ≥ 80% | – | – | –
C=CCNC(=O)c1cc(Cl)cc(C)c1NC(=O)c1cc(Cn2nnc(C(F)(F)F)n2)nn1-c1ncccc1Cl [Example 319] | 3.34 | ≥ 80% | ≥ 80% | – | – | –
Cc1cc(I)cc(C(=O)NC(C)C)c1NC(=O)c1cc(Cn2nnc(C(F)(F)F)n2)nn1-c1ncccc1C(F)(F)F [Example 243] | – | ≥ 80% | – | – | ≥ 80% | 3.9
CNC(=O)c1cc(F)cc(C)c1NC(=O)c1cc(Cn2nnc(C(F)(F)C(F)(F)F)n2)nn1-c1ncccc1Cl [Example 147] | 3.09 | ≥ 80% | ≥ 80% | – | – | –
Cc1cc(C#N)cc(C(=O)NC2CC2)c1NC(=O)c1cc(Cn2nnnc2C(F)F)nn1-c1ncccc1Cl [Example 468] | 2.12 | ≥ 80% | ≥ 80% | – | – | –
NC(=O)c1cc(Cl)cc(Cl)c1NC(=O)c1cc(Cn2nnc(C(F)(F)C(F)(F)F)n2)nn1-c1ncccc1Cl [Example 155] | 3.13 | ≥ 80% | ≥ 80% | – | – | –
Cc1cc(C#N)cc(C(=O)NCC#N)c1NC(=O)c1cc(Cn2nnc(C(F)(C(F)(F)F)C(F)(F)F)n2)nn1-c1ncccc1Cl [Example 374] | – | ≥ 80% | – | – | ≥ 80% | 3.29
CNC(=O)c1cc(Cl)cc(C)c1NC(=O)c1cc(Cn2nnc(C(F)(F)F)n2)nn1-c1ccccc1F [Example 311] | – | ≥ 80% | – | – | ≥ 80% | 3.32
CNC(=O)c1cc(Cl)cc(C)c1NC(=O)c1cc(Cn2nnnc2C(F)(F)C(F)(F)F)nn1-c1ncccc1Cl [Example 198] | 3.1 | ≥ 80% | ≥ 80% | – | – | –
CC(C)NC(=O)c1cc(Cl)cc(Cl)c1NC(=O)c1cc(Cn2nnnc2C(F)(F)C(F)(F)F)nn1-c1ncccc1Cl [Example 205] | 3.52 | ≥ 80% | ≥ 80% | – | – | –
Cc1cc(Cl)cc(C(=O)NC2CCC2)c1NC(=O)c1cc(Cn2nnc(C(F)F)n2)nn1-c1ncccc1Cl [Example 260] | 3.09 | ≥ 80% | ≥ 80% | – | – | –
Cc1cc(Cl)cc(C(=O)NC(C)(C)C)c1NC(=O)c1cc(Cn2nnc(C(F)(C(F)(F)F)C(F)(F)F)n2)nn1-c1ncccc1Cl [Example 362] | – | ≥ 80% | – | – | ≥ 80% | 4.56
Cc1cc(C#N)cc(C(=O)NCc2ccoc2)c1NC(=O)c1cc(Cn2nnc(C(F)(F)F)n2)nn1-c1ncccc1Cl [Example 99] | 3.09 | ≥ 80% | ≥ 80% | – | – | –
